Laboratory results taken from the supplement of paper PMC10307832.

Columns and labels:
Test in all cases: relative viability (nuclei count vs DMSO), 5 days (fraction); higher = more cells survive
[1] = compound: CN1C=C(C2=CC=CC=C21)/C=C\3/C4=C(C=CC=N4)NC3=O + COc1cc2c(Oc3ccc(NC(=O)C4(C(=O)Nc5ccc(F)cc5)CC4)cc3F)ccnc2cc1OCCCN1CCOCC1 [Foretinib] (partner 0.25 µM)
Method in brief: (§1)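 Nuclei were stained with Hoechst during a one-step fixation (final 0.05% Triton X-100, 1% formaldehyde, 1 ug/ml Hoechst) carried out 5 days after dosing, then counted on 4× images. The cells, lung cancer lines in 1536-well plates, had been dosed by pin tool the day after seeding with one drug alone or a fixed anchor-drug dose plus five library-drug doses (not always all listed) in √10 steps. Relative viability is the nuclei count in treated wells divided by that in vehicle wells, and each value is the median of duplicate plates.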

[2] = compound: CN1C=C(C2=CC=CC=C21)/C=C\3/C4=C(C=CC=N4)NC3=O + O=C(CCCCCCC(=O)Nc1ccccc1)NO [Vorinostat] (partner 1 µM)
Method in brief: as §1

[3] = compound: CN1C=C(C2=CC=CC=C21)/C=C\3/C4=C(C=CC=N4)NC3=O + N=C(N)NC(=N)NCCc1ccccc1 [Phenformin] (partner 250 µM)
Method in brief: as §1

Trametinib + Foretinib = compound: CC(=O)Nc1cccc(-n2c(=O)n(C3CC3)c(=O)c3c(Nc4ccc(I)cc4F)n(C)c(=O)c(C)c32)c1 [Trametinib] + COc1cc2c(Oc3ccc(NC(=O)C4(C(=O)Nc5ccc(F)cc5)CC4)cc3F)ccnc2cc1OCCCN1CCOCC1 [Foretinib] (partner 0.25 µM)
Method in brief: as §1

Row | Cell Line | relative viability ([1]; first compound 0.02 µM) | relative viability ([1]; first compound 0.06325 µM) | relative viability ([1]; first compound 0.6325 µM) | relative viability ([1]; first compound 2 µM) | relative viability ([2]; first compound 0.02 µM) | relative viability ([2]; first compound 0.6325 µM) | relative viability ([2]; first compound 2 µM) | relative viability ([3]; first compound 0.02 µM) | relative viability ([3]; first compound 0.06325 µM) | relative viability ([3]; first compound 0.6325 µM) | relative viability ([3]; first compound 2 µM) | relative viability (Trametinib + Foretinib; first compound 0.0025 µM) | relative viability (Trametinib + Foretinib; first compound 0.007906 µM) | relative viability (Trametinib + Foretinib; first compound 0.025 µM) | relative viability (Trametinib + Foretinib; first compound 0.07906 µM) | relative viability (Trametinib + Foretinib; first compound 0.25 µM) | relative viability ([1]; first compound 0.2 µM) | relative viability ([2]; first compound 0.06325 µM) | relative viability ([2]; first compound 0.2 µM) | relative viability ([3]; first compound 0.2 µM)
1 | SW 900 | 0.961 | 0.702 | 0.866 | 0.723 | 0.588 | 0.352 | 0.463 | 0.468 | 0.434 | 0.589 | 0.809 | 0.79 | 0.669 | 0.708 | 0.698 | 0.499 | – | – | – | –
2 | PC-3 [JPC-3] | 1.06 | 1.02 | 0.973 | 1.05 | 0.831 | 0.612 | 0.589 | 0.472 | 0.44 | 0.425 | 0.497 | 1 | 0.969 | 0.87 | 0.709 | 0.574 | 0.987 | 0.798 | 0.75 | 0.434
3 | NCI-H1703 | 0.345 | 0.354 | 0.347 | 0.349 | – | – | – | – | – | – | – | 0.371 | 0.315 | 0.357 | 0.368 | 0.323 | 0.311 | – | – | –
4 | EPLC-272H | 0.564 | 0.677 | – | 0.663 | 0.486 | – | 0.404 | 0.287 | 0.244 | – | 0.3 | 0.476 | 0.384 | 0.26 | 0.237 | 0.14 | 0.603 | 0.379 | 0.465 | 0.242
5 | NCI-H1792 | – | – | – | – | – | – | – | 0.442 | 0.245 | 0.297 | 0.237 | – | – | – | – | – | – | – | – | –
6 | NCI-H2085 | 1.1 | 0.843 | 1.02 | 1.02 | 0.723 | 0.735 | 0.784 | 0.74 | 0.656 | 0.778 | 0.72 | 0.695 | 0.732 | 0.625 | 0.587 | 0.626 | 0.998 | 0.757 | 0.746 | 0.647
7 | LK-2 | – | – | 1.23 | 1.41 | – | 0.231 | 0.315 | – | – | 0.56 | 0.546 | 1.07 | 1.19 | 1.11 | 1.2 | 0.859 | – | 0.263 | 0.199 | –
8 | NCI-H1395 | 0.889 | 0.942 | 0.992 | 0.868 | 0.679 | 0.662 | 0.604 | 0.436 | 0.429 | 0.446 | 0.414 | 0.993 | 0.914 | 0.852 | 0.919 | 0.708 | 0.864 | 0.725 | 0.564 | 0.365
9 | ABC-1 | 0.929 | 1.08 | 1.13 | 1.13 | 1.29 | 1.05 | 0.834 | 0.226 | 0.242 | 0.244 | 0.21 | 1.04 | 0.834 | 0.715 | 0.891 | 0.685 | 1.16 | 0.899 | 0.926 | 0.23
10 | RERF-LC-KJ | 0.924 | 0.938 | 0.859 | 0.779 | 0.787 | 0.604 | 0.598 | 0.434 | 0.415 | 0.474 | 0.482 | 0.948 | 0.851 | 0.699 | 0.827 | 0.778 | 0.867 | 0.668 | 0.72 | 0.444
11 | LU99A | 0.637 | 0.699 | 0.845 | 0.835 | 0.475 | 0.492 | 0.477 | 0.874 | 0.846 | 0.602 | 0.8 | 0.793 | 0.817 | 0.637 | 0.53 | 0.438 | 0.759 | 0.401 | 0.508 | 0.695
12 | NCI-H650 | 1.05 | 0.938 | 1.02 | 1 | 0.439 | 0.383 | 0.328 | 0.474 | 0.481 | 0.421 | 0.404 | 1.1 | 1.17 | 1.1 | 1.17 | 0.839 | – | 0.369 | – | –
13 | NCI-H2347 | 1.13 | 0.76 | 0.707 | 0.748 | 0.585 | 0.493 | 0.517 | – | 0.374 | 0.318 | 0.46 | 1.08 | 0.43 | 0.31 | 0.46 | 0.387 | 0.988 | 0.659 | 0.582 | 0.297
14 | HARA | 0.94 | 0.68 | 0.818 | 0.848 | 0.511 | 0.491 | 0.5 | 0.407 | 0.412 | 0.34 | 0.431 | 0.834 | 0.555 | 0.58 | 0.515 | 0.232 | – | 0.524 | 0.531 | –
15 | NCI-H2228 | 0.95 | 0.764 | – | 0.823 | 0.85 | 0.704 | 0.508 | 0.213 | 0.273 | – | 0.304 | 0.911 | 0.761 | 0.811 | 0.571 | 0.4 | – | 0.646 | 0.503 | –
16 | EKVX | 0.877 | 0.842 | 0.662 | 0.773 | 0.537 | 0.631 | 0.638 | 0.206 | 0.227 | 0.201 | 0.236 | 0.809 | 0.724 | 0.332 | 0.379 | 0.838 | 0.806 | 0.627 | 0.641 | 0.226
17 | HCC-827 | 0.851 | 1.01 | 1.18 | 0.893 | 0.721 | 0.703 | 0.714 | 0.405 | 0.413 | 0.465 | 0.388 | 1.01 | 0.95 | 0.787 | 0.556 | 0.425 | – | 0.87 | – | –
18 | NCI-H1755 | 0.813 | 0.83 | 0.838 | 0.833 | 0.601 | 0.584 | 0.643 | 0.532 | 0.537 | 0.263 | 0.571 | 0.856 | 0.863 | 0.82 | 0.809 | 0.787 | 0.899 | 0.751 | 0.477 | 0.523
19 | NCI-H661 | 1.11 | 0.965 | 1.05 | 1.04 | 0.853 | 0.927 | 0.775 | 0.261 | 0.277 | 0.276 | 0.264 | 0.941 | 1 | 0.794 | 0.751 | 0.62 | 1.04 | 0.763 | 0.835 | 0.266
